The results in this text go back to patent publication EP3423441B1, “IODINATED ANALOGS OF CHOLINE, METHODS OF PREPARATION THEREOF, AND USE THEREOF AS MEDICAMENTS” (Univerzita Palackého v Olomouci, priority 2016, dated 2017).

The subject of one data set is choline transporters. Nature of the data set: In vitro determination of IC50: inhibition of [^3H]choline chloride accumulation in PC-3 cells. The format is cell-based. To be noted: cell line PC-3 (human prostate carcinoma), [^3H]choline chloride 0.81 × 10^-6 M, 60 min at 37 °C. As to the method: IC50 value corresponds to a concentration of the given analog of choline which reduces the accumulation of choline chloride, the natural ligand of choline transporterss, to 50 % of the maximum value. For the assay, the tritium labeled choline chloride, i.e. [^3H]choline chloride, was used. The assay was performed in vitro on the cell line PC-3 derived from a human prostate carcinoma, which is known to overexpress choline transporters. […] As the negative control, a cell line of human ovarian carcinoma SKOV3 prepared to the confluence of 90 % in 24-well plates was used.
The cultivation medium was removed from the thus prepared cells in cultivation plates and the cells were rinsed with phosphate buffered saline (PBS). Subsequently, 0.3 mL of "incubation buffer" (25 mM Tris/HCl, 5.4 mM KCl, 1.8 mM CaCl2, 0.8 mM MgSO4, 5 mM glucose, 140 mM NaCl, pH adjusted to 7.4) was added to the cells. Then 0.1 mL of the solution of the tested substance (analog of choline) in the incubation buffer was added to the PC-3 cells in such concentrations, that after adding [^3H]choline chloride the resulting concentrations of the tested analog would be following: 0 M, 10^-8 M, 10^-7 M, 10^-6 M, 5 × 10^-6 M, 10^-5 M, 10^-4 M, 5 × 10^-4 M, 10^-3 M, 5×10^-3 M. Each concentration was tested in triplicate.
Subsequently, all cells prepared in this manner (PC-3 and SKOV3) were incubated with the analogs of choline for 15 minutes at the temperature of 37 °C.
Then 0.1 mL of the solution of the [^3H]choline chloride in the incubation buffer was added to all cell-containing wells, so that 0.1 mL of the solution had the activity of 15 kBq and that the final concentration of the [^3H]choline chloride in the medium with the cells was 0.81 × 10^-6 M. The cells were then incubated at 37 °C for a period of 60 min. After the incubation, all buffer solution was removed from the cells. The cells were rinsed with PBS, which was subsequently removed, and 0.2 mL of aqueous NaOH solution (0.1 M) was added to each well. The cells were incubated with sodium hydroxide for 30 min at 37 °C. The lysate was then homogenized with a pipette and 10 µL of the lysate were used for the determination of protein concentration by bicinchonic acid assay (BCA).
The remaining lysate (180 µL) was quantitatively transferred into scintillation vials containing a previously prepared scintillation solution (2 mL of the solution in each vial). Each well was then additionally rinsed with 0.2 mL of pure water and this solution was added to the corresponding scintillation vials. Scintillation vials were closed and their content was stirred on a shaker.
To another three scintillation vials containing scintillation solution (2 mL of the solution in each vial) the standard samples of [^3H]choline chloride were added (i.e. 10 µl of the [^3H]choline chloride solution together with 180 µl of aqueous NaOH solution (0.1 M) and 200 µl of water). The vials were closed and their content was stirred on the shaker.
Subsequently, radioactivity of each scintillation vial was measured using a liquid scintillation counter (Tri-Carb 2910TR Liquid Scintillation Counter, PerkinElmer). The recorded counts per second (cps) were then used to calculate the accumulation of [^3H]choline chloride in the individual cell samples. […] These values were used to construct a sigmoid curve of dependence between the rate of [^3H]choline chloride accumulation and the competing ligand (analog of choline) concentration(inhibition curve, Figure 2). The IC50 values were calculated from these inhibition curves.

Data set [1] in a line: Binding to plasmatic proteins. To be noted: plasma.
The next data set is described as follows: in vitro. Conditions: liver microsomes. Background: Microsomes from liver hold many membrane-bound enzymes, among them those of drug oxidation.
A further data set in a line: Microsomal stability. To be noted: hepatic microsomes.

Usually IC50 stands for the concentration that gives 50% inhibition. What is called fraction unbound is the share of the substance not bound to proteins or other matrix. A lower fraction unbound goes with little free substance. Usually microsomal CLint stands for a measure of how fast metabolising enzymes remove a compound, apart from limits set by blood flow. A high value points to rapid turnover. `CC[N+](CC)(CCO)Cc1ccccc1I.Cc1ccc(S(=O)(=O)[O-])cc1` [Example 15, Diethyl-(2-hydroxyethyl)-(2-iodobenzyl)ammonium 4-methylbenzenesulfonate] showed an IC50 in the data set with choline transporters of 8.4 µM. The molecule also showed a fraction unbound in data set [1] of 0.814. The molecule further yielded a microsomal CLint in “in vitro” of 73.6 µL/min/mg. For the same molecule, in the data set “Microsomal stability”, the “Microsomal stability t1l2” value is 18.8 min. Further, in “Stability in the plasma”, the “Plasma stability (120 min)” value worked out at 84.9%.

Turning to `OCC[N+]1(CCOc2cccc(I)c2)CCCC1` [Example 28, 1-(2-hydroxyethyl)-1-[2-(3-iodophenoxy)ethyl]pyrrolidin-1-ium bromide], the midpoint of inhibition with choline transporters, the IC50, lay at 15 µM.

The molecule `C[N+](C)(CCO)CCCCOc1ccc(-c2ccccc2)cc1I` [Example 39, (2-hydroxyethyl)-{4-[(3-iodo-[1,1'-biphenyl]-4-yl)oxy]butyl}-dimethylammonium bromide] had an IC50 with choline transporters of 1.3 µM.

The molecule `C[N+](C)(CCO)CCCCCCOc1cccc(I)c1` [Example 29, (2-hydroxyethyl)-[6-(3-iodophenoxy)hexyl]-dimethylammonium bromide] registered an IC50 with choline transporters of 0.044 µM.

The molecule `OCC[N+]1(Cc2ccc(I)cc2)CCCC1` [Example 13, 1-(2-hydroxyethyl)-1-(4-iodobenzyl)pyrrolidin-1-ium bromide] gave an IC50 in the data set on choline transporters of 29 µM.

As for `OCC[N+]1(Cc2ccccc2I)CCOCC1` [Example 36, 4-(2-hydroxyethyl)-4-(2-iodobenzyl)morpholin-4-ium chloride], the IC50 with choline transporters was 43 µM.

As for `OCC[N+]1(Cc2ccc(I)cc2)CCCC1` [Example 20, 1-(2-hydroxyethyl)-1-(4-iodobenzyl)pyrrolidin-1-ium 4-methylbenzenesulfonate], in the data set with choline transporters (4-methylbenzenesulfonate), half-maximal inhibition (IC50) was put at 6.3 µM. Also, the microsomal CLint in the data set “in vitro” was 310 µL/min/mg.

In the data set on choline transporters, `C[N+](C)(CCO)CCCCCCOc1cccnc1I` [Example 37, (2-hydroxyethyl)-{6-[(2-iodopyridin-3-yl)oxy]hexyl}-dimethylammonium bromide] gave an IC50 of 1.4 µM.

For the molecule `Cc1ccc(S(=O)(=O)[O-])cc1.OC1C[N+]2(Cc3ccccc3I)CCC1CC2` (stereo not drawn) [Example 18, 3-hydroxy-1-(2-iodobenzyl)quinuclidin-1-ium 4-methylbenzenesulfonate], in the data set on choline transporters, the IC50 was determined as 180 µM. Moreover, the fraction unbound in data set [1] is 0.903. In “in vitro”, this molecule gave a microsomal CLint of 63 µL/min/mg. Besides, the “Microsomal stability t1l2” value in the data set “Microsomal stability” was determined as 22.0 min. In addition, the “Plasma stability (120 min)” value in “Stability in the plasma” stood at 73.4%.

As for `OCC[N+]1(Cc2ccc(I)cc2)CCOCC1` [Example 35, 4-(2-hydroxyethyl)-4-(4-iodobenzyl)morpholin-4-ium bromide], inhibition with choline transporters was half-maximal at 270 µM (IC50).

With `CCCCCCCCCCOc1ccc(CCC[N+](C)(C)CCO)cc1I` [Example 22, [3-(4-decyloxy-3-iodophenyl)propyl]-(2-hydroxyethyl)-dimethylammonium methanesulfonate], the IC50 in the data set with choline transporters was found to be 1.9 µM.

On to `COc1ccc(CCC[N+](C)(C)CCO)cc1I.Cc1ccc(S(=O)(=O)[O-])cc1` [Example 4, (2-hydroxyethyl)-[3-(3-iodo-4-methoxyphenyl)propyl]-dimethylammonium 4-methylbenzenesulfonate], for which the IC50 in the data set on choline transporters amounted to 19 µM. Also, the fraction unbound in data set [1] is 0.715. This molecule came in with a microsomal CLint in “in vitro” of 1120 µL/min/mg. Also, the “Microsomal stability t1l2” value in “Microsomal stability” stood at 1.2 min. For the same molecule, the “Plasma stability (120 min)” value in the data set “Stability in the plasma” is on record as 63.9%.

Consider `Cc1ccc(S(=O)(=O)[O-])cc1.OCCN1CC[N+](CCO)(Cc2ccccc2I)CC1` [Example 17, 1,4-bis(2-hydroxyethyl)-1-(2-iodobenzyl)piperazin-1-ium 4-methylbenzenesulfonate], for which, in the data set on choline transporters, the IC50 stood at 740 µM. In addition, the fraction unbound in data set [1] was 0.943. The molecule further displayed a microsomal CLint in “in vitro” of 0.8 µL/min/mg. Moreover, the “Microsomal stability t1l2” value in the data set “Microsomal stability” was found to be 1732.5 min. Moreover, in the data set “Stability in the plasma”, the “Plasma stability (120 min)” value worked out at 58.4%.

Regarding `C[N+](C)(CCO)CCOc1ccc(I)cc1` [Example 25, (2-hydroxyethyl)-[2-(4-iodophenoxy)ethyl]-dimethylammonium bromide], in the data set with choline transporters, the half-inhibitory concentration (IC50) worked out at 23 µM.

For `C[N+](C)(CCO)CCOc1cccc(I)c1` [Example 27, (2-hydroxyethyl)-[2-(3-iodophenoxy)ethyl]-dimethylammonium bromide], the 50% inhibitory concentration (IC50) with choline transporters was found to be 22 µM.

`CC[N+](CC)(CCO)Cc1ccc(I)cc1` [Example 12, diethyl-(2-hydroxyethyl)-(4-iodobenzyl)ammonium bromide] returned an IC50 in the data set on choline transporters of 80 µM.

For the molecule `C[N+](C)(CCO)CCc1ccc(I)s1` [Example 33, (2-hydroxyethyl)-[2-(5-iodothiophen-2-yl)ethyl]-dimethylammonium 4-methylbenzenesulfonate], the IC50 in the data set on choline transporters is 0.45 µM.

Turning to `C[N+](C)(CCO)CCCCOc1ccccc1I` [Example 31, (2-hydroxyethyl)-[4-(2-iodophenoxy)butyl]-dimethylammonium bromide], in the data set with choline transporters, half-maximal inhibition (IC50) required 11 µM.

`OCC[N+]1(CCOc2ccc(I)cc2)CCCC1` [Example 26, 1-(2-hydroxyethyl)-1-[2-(4-iodophenoxy)ethyl]pyrrolidin-1-ium bromide] showed an IC50 with choline transporters of 18 µM.

In the data set on choline transporters, “(2-hydroxyethyl)-{4-[(2-iodo-6-methylpyridin-3-yl)oxy]butyt}-dimethylammonium bromide [Example 38]” displayed an IC50 of 18 µM.

With `C[N+](C)(CCO)CCCCCCOc1ccc(I)c([N+](=O)[O-])c1` [Example 40, (2-hydroxyethyl)-[6-(4-iodo-3-nitrophenoxy)hexyl]-dimethylammonium bromide], the IC50 with choline transporters is 0.14 µM.

Consider `OCC[N+]1(Cc2cccc(I)c2)CCCC1` [Example 10, 1-(2-hydroxyethyl)-1-(3-iodobenzyl)pyrrolidin-1-ium methanesulfonate], for which the IC50 in the data set on choline transporters worked out at 13 µM.

In the data set with choline transporters, `CCCCCCOc1ccc(CCC[N+](C)(C)CCO)cc1I` [Example 21, [3-(4-hexyloxy-3-iodophenyl)propyl]-(2-hydroxyethyl)-dimethylammonium 4-methylbenzenesulfonate] returned an IC50 of 0.43 µM.

With `C[N+](C)(CCO)Cc1ccc(I)cc1` [Example 11, (2-hydroxyethyl)-(4-iodobenzyl)-dimethylammonium bromide], the IC50 with choline transporters came to 150 µM.

In turn, `OCC[N+]1(CCOc2ccccc2I)CCCC1` [Example 24, 1-(2-hydroxyethyl)-1-[2-(2-iodophenoxy)ethyl]pyrrolidin-1-ium bromide] showed an IC50 in the data set with choline transporters of 4.7 µM.

For the molecule `OCC[N+]1(CCc2ccc(I)s2)CCCC1` [Example 34, 1-(2-hydroxyethyl)-1-[2-(5-iodothiophen-2-yl)ethyl]pyrrolidin-1-ium 4-methylbenzenesulfonate], the IC50 in the data set with choline transporters was determined as 10 µM.

In turn, `C[N+](C)(CF)CCO` [Fluoromethylcholine, reference compound] displayed an IC50 in the data set with choline transporters of 16 µM.

`C[N+](C)(CCO)Cc1cccc(I)c1` [Example 9, (2-hydroxyethyl)-(3-iodobenzyl)-dimethylammonium methanesulfonate] returned an IC50 with choline transporters of 99 µM.

As for `OCC[N+]1(CCCCCCOc2cccc(I)c2)CCCC1` [Example 30, 1-(2-hydroxyethyl)-1-[6-(3-iodophenoxy)hexyl]pyrrolidin-1-ium bromide], the IC50 with choline transporters turned out to be 0.91 µM.

In the data set on choline transporters, `OCC[N+]1(CCCCOc2ccccc2I)CCCC1` [Example 32, 1-(2-hydroxyethyl)-1-[4-(2-iodophenoxy)butyl]pyrrolidin-1-ium bromide] had an IC50 of 5.1 µM.

As for `C[N+](C)(C)CCO` [Choline], inhibition in the data set with choline transporters was half-maximal at 3.7 µM (IC50).
